Data on 35 molecules can be found in ChEMBL document CHEMBL6103553, “Small molecule inhibitors targeting PD-L1, CTLA4, VISTA, TIM-3, and LAG3 for cancer immunotherapy (2020-2024)” (Eur J Med Chem, 2025).

A short description of data set [1]: Inhibition of his-tagged CTLA-4/CD80 (unknown origin) protein-protein interaction by TR-FRET assay. Also noted: species or system Homo sapiens.
Data set [2] can be described thus: Inhibition of CTLA-4/CD80 (unknown origin) protein-protein interaction. More on the design: species or system Homo sapiens.
Data set [3] deals with Programmed cell death protein 1/Programmed cell death 1 ligand 1 (Homo sapiens, UniProt Q9NZQ7). Put plainly: Inhibition of human PD-1/PD-L1 incubated for 1 hr by HTRF assay. It counts as protein-complex assay. (TR-FRET usually uses a lanthanide donor and a delayed reading to cut background.)
Sequence of Programmed cell death protein 1/Programmed cell death 1 ligand 1 (Q15116 whole entry, the tested form may be a part): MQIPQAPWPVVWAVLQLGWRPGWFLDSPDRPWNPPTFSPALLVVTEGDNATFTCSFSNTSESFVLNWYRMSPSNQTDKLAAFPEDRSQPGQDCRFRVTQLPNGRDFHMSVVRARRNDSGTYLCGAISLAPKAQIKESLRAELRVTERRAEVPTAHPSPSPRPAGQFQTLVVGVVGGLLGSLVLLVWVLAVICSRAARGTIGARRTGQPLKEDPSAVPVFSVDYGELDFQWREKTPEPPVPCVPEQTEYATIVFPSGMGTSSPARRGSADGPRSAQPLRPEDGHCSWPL
Sequence of Programmed cell death protein 1/Programmed cell death 1 ligand 1 (Q9NZQ7 whole entry, the tested form may be a part): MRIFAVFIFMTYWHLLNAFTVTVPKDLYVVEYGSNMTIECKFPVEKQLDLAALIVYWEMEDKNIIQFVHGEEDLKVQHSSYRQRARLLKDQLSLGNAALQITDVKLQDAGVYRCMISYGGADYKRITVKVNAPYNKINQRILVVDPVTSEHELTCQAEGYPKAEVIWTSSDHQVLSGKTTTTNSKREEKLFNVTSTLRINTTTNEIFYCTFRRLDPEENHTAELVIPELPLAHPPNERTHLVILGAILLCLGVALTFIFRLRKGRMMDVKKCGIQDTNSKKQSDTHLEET
In data set [4] the target is T1, V-type immunoglobulin domain-containing suppressor of T-cell activation (Homo sapiens, UniProt Q9H7M9).
T1 sequence (Q9H7M9 whole entry): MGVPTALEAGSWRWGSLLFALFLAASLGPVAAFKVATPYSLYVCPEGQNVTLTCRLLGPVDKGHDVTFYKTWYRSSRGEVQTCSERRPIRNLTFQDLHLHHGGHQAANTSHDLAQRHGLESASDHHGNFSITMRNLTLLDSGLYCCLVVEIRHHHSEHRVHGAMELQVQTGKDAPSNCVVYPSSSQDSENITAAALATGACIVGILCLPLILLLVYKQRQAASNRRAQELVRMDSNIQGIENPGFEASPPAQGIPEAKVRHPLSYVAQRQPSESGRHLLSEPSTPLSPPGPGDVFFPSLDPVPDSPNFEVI
Put plainly: Inhibition of N-terminal His-tagged human recombinant VISTA (1 to 161 residues) transfected in human Expi293 cells incubated for 60 mins by ELISA analysis. It counts as cell-based. Background: ELISA stands for enzyme-linked immunosorbent assay.

Data set [5] is described as follows: Inhibition of VISTA/VSIG-3 (unknown origin) protein-protein interaction by TR-FRET assay.
The target of data set [6] is T1, V-type immunoglobulin domain-containing suppressor of T-cell activation. Put plainly: biochemical.
Description: Binding affinity to N-terminal His-tagged human recombinant VISTA (1 to 161 residues) transfected in human Expi293 cells assessed as dissociation constant incubated for 60 mins by SPR assay
Data set [7] in a line: Induction of PD-L1 degradation in human NCI-H460 cells transfected with siRNA ABCB1 incubated for 2 hrs by Western blot analysis. The note with it: NCI-H460, 2 h. In general terms: In western blotting, separated proteins are transferred to a membrane and probed.
A short description of data set [8]: Inhibition of LAG-3/MHC-II (unknown origin) interaction by TR-FRET assay. Also noted: species or system Homo sapiens.
The nature of data set [9]: Inhibition of PD-L1 (unknown origin) by FRET assay. More on the design: species or system Homo sapiens.
Data set [10] in a line: Binding affinity to PD-L1 (unknown origin) assessed as dissociation constant. Also noted: species or system Homo sapiens.
For the next data set, the target named is Tubulin. The experiment in a line: Inhibition of tubulin polymerization (unknown origin). It counts as protein-complex assay, Homo sapiens.
A short description of data set [11]: Inhibition of human PD-L1 by HTRF assay.
Data set [12] in a line: Stability in mouse plasma assessed as half life. In kind it is ADME, cell-free.
In another data set the test system is MC-38. Put plainly: Antitumor activity against mouse MC-38 cells implanted in C57BL/6N mouse assessed as reduction in tumor volume at 10 mg/kg, ip in presence of PD-L1 and measured after 10 days relative to control. More on the design: scale not given: the % may be the effect or the level left. As to conditions: time 10 day. It counts as functional.
Data set [13] in a line: Inhibition of PD-L1 (unknown origin) by HTRF assay. Also noted: species or system Homo sapiens.

As to `Clc1ccc(C2=NN(c3ccccc3)C(c3ccco3)C2)cc1` (centres undefined), inhibition in data set [1] was half-maximal at 1000 nM (IC50).
Turning to `COc1ccccc1C1CN(c2ccccc2)N=C1c1cccs1` (centres undefined), in [2], it took 1900 nM to reach half-maximal inhibition (IC50).
On to `Cc1nc(C)c(C(=O)NNC(=O)Cc2ccccc2)cc1C(=O)NNC(=O)Cc1ccccc1`, for which, in data set [3], the IC50 – broadly, the midpoint of a concentration-inhibition curve – was 1.09 nM.
In the case of `COc1ccc(-c2nc(N)nc(-c3cc(C)ccc3O)c2Cl)cc1`, in [3], the IC50 worked out at 2.44 nM.
`CN(C)c1n/c(=N/Cc2cccs2)ss1`: the IC50 in [4] amounted to 6400 nM.
Take `CN(C)c1n/c(=N/Cc2ccco2)ss1`: the results for the IC50 in data set [5] and in [4] were 9700 nM and 4500 nM, respectively. Also, in [6], the Kd (commonly the concentration at which binding is half-saturated) amounted to 6200 nM.
With `C[C@@]1(C(=O)O)CC[C@]2(C)CC[C@]3(C)C4=CC(=O)c5c(cc(O)c(O)c5C=O)[C@]4(C)CC[C@@]3(C)[C@@H]2C1`, the DC50 – broadly, the concentration at which degradation of the target reaches its halfway point – in data set [7] is below 5000 nM.
`Clc1ccc(C2CN(c3ccccc3)N=C2c2ccco2)cc1` (centres undefined) displayed an IC50 in data set [1] of 4100 nM.
As to `Cc1cc(C(=O)COc2ccc(NC(=O)c3ccco3)cc2)c(C)n1-c1ccccc1`, in [8], half-maximal inhibition (IC50) was put at 8300 nM.
As for `CC(=O)Nc1ccc(OCC(=O)c2cc(C)n(C(C)C)c2C)cc1`, the IC50 in data set [8] is above 50000 nM.
Still for that read-out and setting: then `Cc1cc(C(=O)COc2ccc(NC(=O)c3ccco3)cc2)c(C)n1Cc1ccccc1`, with 4200 nM.
Consider `Cc1c(-c2ccccc2)ccc2nc(-c3ccc(CNCCO)cc3)[nH]c12`, for which the IC50 in data set [4] is 1100 nM.
On to `Cc1cc(O)n(-c2ccccc2)n1`, for which, in data set [9], the IC50 came out at 92 nM. For the same molecule, in data set [10], the Kd stood at 98 nM.
In the case of `O=C(CSc1ccccc1Cl)N1N=C(c2cccs2)CC1c1ccco1` (centres undefined), in data set [2], inhibition was half-maximal at 1300 nM (IC50).
`Oc1cc(-c2cccc(C(F)(F)F)c2)nn1-c1ccccn1` had an IC50 in data set [9] of 1100 nM. Further, the Kd in data set [10] is 1200 nM.
In the case of `Clc1ccc(C2=NN(Cc3ccccc3)CC2c2ccccc2)cc1` (centres undefined), inhibition in [2] was half-maximal at 970 nM (IC50).
As to `COc1ccc(/C=C\c2cc(OC)c(OC)c(OC)c2)cc1OCc1ccc(CC=O)cc1`, the IC50 against Tubulin turned out to be 16100 nM; in [11], 48.8 nM.
The molecule `N=c1[nH]c2c3c(c4[nH]c(=N)[nH]c4c2[nH]1)[C@@H](CNC(=O)c1cc(Br)c(Br)[nH]1)[C@@H]3CNC(=O)c1cc(Br)c(Br)[nH]1` gave a DC50 in data set [7] below 5000 nM.
`O=[N+]([O-])c1cccc(/C=N/OCc2coc(-c3cccc(F)c3)n2)c1` returned an IC50 in [1] of 5160 nM.
In the case of `Cc1c(COc2ccc(CN3CCCCC3C(=O)NCCOCCNC(=O)CCCCCn3cc(CCCC(=O)NCCCC[C@@H]4NC(=O)[C@@H](Cc5ccc(O)cc5)NC(=O)[C@H](CC(=O)O)NC(=O)CNC(=O)[C@H](CCCNC(=N)N)NC4=O)nn3)cc2Br)cccc1-c1ccccc1` (some centres undefined), the half-maximal degradation concentration (DC50) in [7] is below 100 nM.
`Oc1cc(-c2ccc(Cl)cc2Cl)nn1-c1ccccn1` had an IC50 in data set [9] of 77 nM. In data set [10], the Kd worked out at 110 nM.
Regarding `Cc1cccc2nc(-c3cccc(CNCCO)c3)[nH]c12`, in data set [4], the IC50 amounted to 256000 nM.
`COc1ccc(-c2nc(CO/N=C/c3ccccc3Cl)co2)cc1` yielded an IC50 in data set [2] of 1500 nM.
In [7], `Cc1c(COc2ccc(CN3CCCCC3C(=O)NCCCn3cc(CCCC(=O)NCCCC[C@@H]4NC(=O)[C@@H](Cc5ccc(O)cc5)NC(=O)[C@H](CC(=O)O)NC(=O)CNC(=O)[C@H](CCCNC(=N)N)NC4=O)nn3)cc2Br)cccc1-c1ccccc1` (some centres undefined) showed a DC50 below 50000 nM.
Same read-out and setting: then `CCOC(=O)C1=C(COCCS)NC(C)=C(C(=O)OC)C1c1ccccc1Cl` (centres undefined), with below 10000 nM.
In data set [7], `Cc1c(COc2ccc(CN3CCCCC3C(=O)NCCOCCOCCOCCNC(=O)CCCCCn3cc(CCCC(=O)NCCCC[C@@H]4NC(=O)[C@@H](Cc5ccc(O)cc5)NC(=O)[C@H](CC(=O)O)NC(=O)CNC(=O)[C@H](CCCNC(=N)N)NC4=O)nn3)cc2Br)cccc1-c1ccccc1` (some centres undefined) displayed a half-maximal degradation concentration (DC50) below 100 nM.
`C/C(=N\OCC(=O)Nc1ccc(C)c(F)c1)c1nc(-c2ccccc2)[nH]c1C` came in with an IC50 in data set [2] of 1400 nM.
As for `Oc1cc(-c2ccc(C(F)(F)F)cc2)nn1-c1ccccn1`, in [12], the half-life – broadly, how long it takes for the measured level to halve – is below 30 min. In addition, the IC50 in [9] was determined as 143 nM. The Kd in data set [10] was found to be 156 nM.
In the case of `CCCCCN(CCCCC)C(C)C(=O)c1cc(C)c2ccc3cc(C(C)C)ccc3c2c1` (centres undefined), in the data set on MC-38, the Activity is recorded as 93.6%. In addition, in data set [3], the IC50 was found to be 96 nM.
The molecule `CCOC(=O)C(COC(=O)NCCSSCCNC(=O)O/N=C(\Nc1ccc(C)c(O)c1)c1nonc1N)NCc1cc(Cl)c(OCc2cccc(-c3ccccc3)c2Br)cc1OCc1ccnc(C#N)c1` (centres undefined) registered an IC50 in data set [13] below 100 nM.
`O=[N+]([O-])c1cccc(/C=N/OCc2csc(-c3ccccc3)n2)c1` showed an IC50 in [2] of 4500 nM.
For the molecule `COc1ccc2cc3[n+](cc2c1OC)CCc1cc2c(cc1-3)OCO2` [BERBERINE CHLORIDE], the DC50 in data set [7] was below 2000 nM.
In turn, `Cc1ccc([C@@H]2O[C@H](CO)[C@@H](O)[C@H](O)[C@H]2O)cc1Cc1ccc(-c2ccc(F)cc2)s1` [CANAGLIFLOZIN ANHYDROUS] yielded a DC50 in [7] below 20000 nM.
Same read-out and setting: then `CN(C)C(=N)NC(=N)N` [METFORMIN], with below 2000 nM; and `O[C@@H](COc1cccc2ncccc12)CN1CCN([C@@H]2c3ccccc3[C@@H]3[C@H](c4ccccc42)C3(F)F)CC1` [ZOSUQUIDAR], with below 10000 nM.
